How the values were obtained:
Test in all cases: KinaseProfiler
Format in all cases: biochemical
Conditions in all cases: 10 μM, ATP near Km
ERK2 = target: T1, ERK2 (Homo sapiens, UniProt P28482)
T1 construct: purchased Millipore, Inc. (KinaseProfiler service)
Experimental: (§1) A representative compound (Example 15) of the invention was tested for off-target kinase activity at a concentration of 10 μM by Millipore, Inc. in their KinaseProfiler™ service against all the kinases available in their full kinase panel. The compound was run in duplicate at a concentration of ATP near the Km for each individual kinase according to Millipore's specifications. The results are shown in Table B. Data are reported as percent of control (POC) and are the average of the two replicates.

TAO2 = target: T2, TAO2 (Homo sapiens, UniProt Q9UL54)
T2 construct: purchased Millipore, Inc. (KinaseProfiler service)
Experimental: as §1

LIMK1 = target: T3, LIMK1 (Homo sapiens, UniProt P53667)
T3 construct: purchased Millipore, Inc. (KinaseProfiler service)
Experimental: as §1

MLK1 = target: T4, MLK1 (Homo sapiens, UniProt P80192)
T4 construct: purchased Millipore, Inc. (KinaseProfiler service)
T4 sequence (P80192 whole entry): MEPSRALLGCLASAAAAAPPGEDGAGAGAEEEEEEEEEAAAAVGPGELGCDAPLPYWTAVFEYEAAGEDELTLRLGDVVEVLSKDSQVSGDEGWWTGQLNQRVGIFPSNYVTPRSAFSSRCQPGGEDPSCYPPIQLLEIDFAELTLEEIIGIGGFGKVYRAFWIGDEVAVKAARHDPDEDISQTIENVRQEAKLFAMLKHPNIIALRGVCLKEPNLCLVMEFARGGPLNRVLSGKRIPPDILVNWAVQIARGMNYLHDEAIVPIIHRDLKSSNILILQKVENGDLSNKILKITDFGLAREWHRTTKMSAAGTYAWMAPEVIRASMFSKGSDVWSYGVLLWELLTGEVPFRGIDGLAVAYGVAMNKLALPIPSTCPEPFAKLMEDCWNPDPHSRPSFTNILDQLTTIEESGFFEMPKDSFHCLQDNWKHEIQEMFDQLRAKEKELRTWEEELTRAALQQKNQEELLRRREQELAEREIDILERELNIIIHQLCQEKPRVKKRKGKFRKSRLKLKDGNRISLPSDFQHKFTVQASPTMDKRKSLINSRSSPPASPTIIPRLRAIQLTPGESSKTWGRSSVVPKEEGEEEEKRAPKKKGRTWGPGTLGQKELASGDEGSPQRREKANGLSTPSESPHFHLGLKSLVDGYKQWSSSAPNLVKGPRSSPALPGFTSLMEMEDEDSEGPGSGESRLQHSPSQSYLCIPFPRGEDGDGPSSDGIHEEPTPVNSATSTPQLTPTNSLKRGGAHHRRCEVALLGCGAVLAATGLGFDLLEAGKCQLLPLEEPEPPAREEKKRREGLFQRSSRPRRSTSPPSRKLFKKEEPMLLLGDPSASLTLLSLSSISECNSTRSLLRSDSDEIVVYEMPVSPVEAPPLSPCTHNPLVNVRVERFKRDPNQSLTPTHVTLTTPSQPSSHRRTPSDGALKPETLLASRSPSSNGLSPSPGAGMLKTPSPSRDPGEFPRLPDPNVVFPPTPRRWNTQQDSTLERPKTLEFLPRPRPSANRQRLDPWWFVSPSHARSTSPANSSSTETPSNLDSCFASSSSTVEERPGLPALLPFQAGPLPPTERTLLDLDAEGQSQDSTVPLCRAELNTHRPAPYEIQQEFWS
Experimental: as §1

p70S6K = target: T5, p70S6K (Homo sapiens, UniProt P23443)
T5 construct: purchased Millipore, Inc. (KinaseProfiler service)
Experimental: as §1

Fyn = target: T6, Fyn (Homo sapiens, UniProt P06241)
T6 construct: purchased Millipore, Inc. (KinaseProfiler service)
T6 sequence (P06241 whole entry): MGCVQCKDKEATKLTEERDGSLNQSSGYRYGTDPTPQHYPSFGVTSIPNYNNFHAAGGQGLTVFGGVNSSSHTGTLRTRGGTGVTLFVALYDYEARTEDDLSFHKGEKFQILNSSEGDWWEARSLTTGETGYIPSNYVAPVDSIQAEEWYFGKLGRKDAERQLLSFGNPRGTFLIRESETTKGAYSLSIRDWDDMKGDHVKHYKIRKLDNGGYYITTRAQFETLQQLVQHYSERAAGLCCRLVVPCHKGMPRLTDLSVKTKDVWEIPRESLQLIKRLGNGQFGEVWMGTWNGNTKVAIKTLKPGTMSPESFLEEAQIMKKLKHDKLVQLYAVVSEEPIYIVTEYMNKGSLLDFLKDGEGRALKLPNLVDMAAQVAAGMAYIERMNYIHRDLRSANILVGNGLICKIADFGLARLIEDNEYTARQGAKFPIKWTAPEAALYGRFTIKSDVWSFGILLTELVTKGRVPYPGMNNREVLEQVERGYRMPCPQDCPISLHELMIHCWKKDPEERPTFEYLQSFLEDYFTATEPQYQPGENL
Experimental: as §1

TAO3 = target: T7, TAO3 (Homo sapiens, UniProt Q9H2K8)
T7 construct: purchased Millipore, Inc. (KinaseProfiler service)
Experimental: as §1

EphB1 = target: T8, EphB1 (Homo sapiens, UniProt P54762)
T8 construct: purchased Millipore, Inc. (KinaseProfiler service)
Experimental: as §1

Axl = target: T9, Axl (Homo sapiens, UniProt P30530)
T9 construct: purchased Millipore (KinaseProfiler service)
Experimental: as §1

MKK6 = target: T10, MKK6 (Homo sapiens, UniProt P52564)
T10 construct: purchased Millipore, Inc. (KinaseProfiler service)
Experimental: as §1

PKCbetaI = target: T11, PKCbetaI (Homo sapiens, UniProt P05771)
T11 construct: purchased Millipore, Inc. (KinaseProfiler service)
Experimental: as §1

SRPK1 = target: T12, SRPK1 (Homo sapiens, UniProt Q96SB4)
T12 construct: purchased Millipore, Inc. (KinaseProfiler service)
Experimental: as §1

MSK2 = target: T13, MSK2 (Homo sapiens, UniProt O75676)
T13 construct: purchased Millipore, Inc. (KinaseProfiler service)
T13 sequence (O75676 whole entry): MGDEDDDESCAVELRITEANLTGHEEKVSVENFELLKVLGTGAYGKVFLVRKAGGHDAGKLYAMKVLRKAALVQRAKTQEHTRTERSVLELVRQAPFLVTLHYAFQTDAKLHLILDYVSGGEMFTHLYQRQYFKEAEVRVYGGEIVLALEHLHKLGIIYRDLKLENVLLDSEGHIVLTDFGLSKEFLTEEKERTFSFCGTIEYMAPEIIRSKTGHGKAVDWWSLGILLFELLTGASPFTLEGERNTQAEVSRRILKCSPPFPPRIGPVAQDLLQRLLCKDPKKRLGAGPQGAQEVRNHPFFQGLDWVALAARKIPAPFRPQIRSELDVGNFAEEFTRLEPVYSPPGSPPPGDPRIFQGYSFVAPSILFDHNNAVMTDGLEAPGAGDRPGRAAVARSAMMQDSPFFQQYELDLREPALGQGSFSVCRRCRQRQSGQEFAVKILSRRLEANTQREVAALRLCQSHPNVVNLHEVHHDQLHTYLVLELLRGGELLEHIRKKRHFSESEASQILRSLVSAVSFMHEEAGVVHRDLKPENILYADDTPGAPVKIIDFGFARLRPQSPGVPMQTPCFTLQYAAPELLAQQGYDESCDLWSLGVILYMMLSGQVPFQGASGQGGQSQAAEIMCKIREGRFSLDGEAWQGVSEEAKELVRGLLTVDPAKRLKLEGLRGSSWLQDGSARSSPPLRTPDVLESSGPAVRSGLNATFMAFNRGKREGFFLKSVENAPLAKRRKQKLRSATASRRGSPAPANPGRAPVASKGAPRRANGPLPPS
Experimental: as §1

Rsk1 = target: T14, Rsk1 (Homo sapiens, UniProt Q15418)
T14 construct: purchased Millipore, Inc. (KinaseProfiler service)
Experimental: as §1

EphA1 = target: T15, EphA1 (Homo sapiens, UniProt P21709)
T15 construct: purchased Millipore, Inc. (KinaseProfiler service)
Experimental: as §1

PAK6 = target: T16, PAK6 (Homo sapiens, UniProt Q9NQU5)
T16 construct: purchased Millipore, Inc. (KinaseProfiler service)
Experimental: as §1

SRC = target: T17, SRC (Homo sapiens, UniProt P12931)
T17 construct: purchased Millipore, Inc. (KinaseProfiler service)
Experimental: as §1

EphA7 = target: T18, EphA7 (Homo sapiens, UniProt Q15375)
T18 construct: purchased Millipore, Inc. (KinaseProfiler service)
T18 sequence (Q15375 28-998): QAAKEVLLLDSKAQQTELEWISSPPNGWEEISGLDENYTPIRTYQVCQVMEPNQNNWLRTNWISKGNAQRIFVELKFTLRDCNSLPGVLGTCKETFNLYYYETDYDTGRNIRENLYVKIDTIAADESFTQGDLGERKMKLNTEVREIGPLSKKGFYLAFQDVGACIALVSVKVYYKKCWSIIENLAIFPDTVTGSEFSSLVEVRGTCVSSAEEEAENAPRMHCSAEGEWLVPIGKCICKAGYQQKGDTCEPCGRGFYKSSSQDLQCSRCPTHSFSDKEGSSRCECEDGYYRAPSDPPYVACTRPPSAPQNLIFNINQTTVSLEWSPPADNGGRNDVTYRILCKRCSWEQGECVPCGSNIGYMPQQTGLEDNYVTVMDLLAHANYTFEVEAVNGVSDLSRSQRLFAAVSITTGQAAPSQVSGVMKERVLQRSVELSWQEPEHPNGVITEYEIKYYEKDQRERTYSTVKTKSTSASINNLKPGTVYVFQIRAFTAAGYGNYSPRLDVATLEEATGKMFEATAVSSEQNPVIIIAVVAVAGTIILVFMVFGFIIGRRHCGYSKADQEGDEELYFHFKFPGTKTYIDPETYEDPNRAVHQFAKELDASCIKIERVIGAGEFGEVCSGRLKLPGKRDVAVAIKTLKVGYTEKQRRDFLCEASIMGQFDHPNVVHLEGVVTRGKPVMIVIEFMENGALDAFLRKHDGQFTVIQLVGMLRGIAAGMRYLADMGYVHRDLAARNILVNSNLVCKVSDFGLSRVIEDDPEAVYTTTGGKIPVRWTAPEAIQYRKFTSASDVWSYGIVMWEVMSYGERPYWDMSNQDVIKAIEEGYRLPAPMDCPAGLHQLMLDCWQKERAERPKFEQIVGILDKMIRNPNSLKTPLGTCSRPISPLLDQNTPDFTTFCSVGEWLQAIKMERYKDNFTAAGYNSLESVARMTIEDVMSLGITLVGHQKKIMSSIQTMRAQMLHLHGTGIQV
Experimental: as §1

Fms = target: T19, Fms (Homo sapiens, UniProt P07333)
T19 construct: purchased Millipore, Inc. (KinaseProfiler service)
Experimental: as §1

CAMK2b = target: T20, CAMK2b (Homo sapiens, UniProt Q13554)
T20 construct: purchased Millipore (KinaseProfiler service)
Experimental: as §1

Pim-2 = target: T21, Pim-2 (Homo sapiens, UniProt Q9P1W9)
T21 construct: purchased Millipore, Inc. (KinaseProfiler service)
Experimental: as §1

DCAMKL2 = target: T22, DCAMKL2 (Homo sapiens, UniProt Q8N568)
T22 construct: purchased Millipore, Inc. (KinaseProfiler service)
Experimental: as §1

GRK5 = target: T23, GRK5 (Homo sapiens, UniProt P34947)
T23 construct: purchased Millipore, Inc. (KinaseProfiler service)
Experimental: as §1

BLK_m = target: T24, BLK_m (Mus musculus, UniProt P16277)
T24 construct: purchased Millipore (KinaseProfiler service)
Experimental: as §1

PDK1 = target: T25, PDK1 (Homo sapiens, UniProt O15530)
T25 construct: purchased Millipore, Inc. (KinaseProfiler service)
Experimental: as §1

PAK2 = target: T26, PAK2 (Homo sapiens, UniProt Q13177)
T26 construct: purchased Millipore, Inc. (KinaseProfiler service)
Experimental: as §1

VRK2 = target: T27, VRK2 (Homo sapiens, UniProt Q86Y07)
T27 construct: purchased Millipore, Inc. (KinaseProfiler service)
Experimental: as §1

MARK2 = target: T28, MARK2 (Homo sapiens, UniProt Q7KZI7)
T28 construct: purchased Millipore, Inc. (KinaseProfiler service)
Experimental: as §1

NEK3 = target: T29, NEK3 (Homo sapiens, UniProt P51956)
T29 construct: purchased Millipore, Inc. (KinaseProfiler service)
Experimental: as §1

CAMK2d = target: T30, CAMK2d (Homo sapiens, UniProt Q13557)
T30 construct: purchased Millipore (KinaseProfiler service)
Experimental: as §1

CDK3/cyclinE = target: T31, CDK3/cyclinE (Homo sapiens, UniProt Q00526)
T31 construct: purchased Millipore, Inc. (KinaseProfiler service)
Experimental: as §1

IGF-1R = target: T32, IGF-1R (Homo sapiens, UniProt P08069)
T32 construct: purchased Millipore, Inc. (KinaseProfiler service)
Experimental: as §1

c-RAF = target: T33, c-RAF (Homo sapiens, UniProt P04049, Y340D/Y341D)
T33 construct: purchased Millipore, Inc. (KinaseProfiler service)
Experimental: as §1

FGFR2 = target: T34, FGFR2 (Homo sapiens, UniProt P21802)
T34 construct: purchased Millipore, Inc. (KinaseProfiler service)
Experimental: as §1

JNKlalpha1 = target: T35, JNKlalpha1 (Homo sapiens, UniProt P45983)
T35 construct: purchased Millipore, Inc. (KinaseProfiler service)
Experimental: as §1

PAK5 = target: T36, PAK5 (Homo sapiens, UniProt Q9P286)
T36 construct: purchased Millipore, Inc. (KinaseProfiler service)
Experimental: as §1

SGK2 = target: T37, SGK2 (Homo sapiens, UniProt Q9HBY8)
T37 construct: purchased Millipore, Inc. (KinaseProfiler service)
T37 sequence (Q9HBY8 whole entry): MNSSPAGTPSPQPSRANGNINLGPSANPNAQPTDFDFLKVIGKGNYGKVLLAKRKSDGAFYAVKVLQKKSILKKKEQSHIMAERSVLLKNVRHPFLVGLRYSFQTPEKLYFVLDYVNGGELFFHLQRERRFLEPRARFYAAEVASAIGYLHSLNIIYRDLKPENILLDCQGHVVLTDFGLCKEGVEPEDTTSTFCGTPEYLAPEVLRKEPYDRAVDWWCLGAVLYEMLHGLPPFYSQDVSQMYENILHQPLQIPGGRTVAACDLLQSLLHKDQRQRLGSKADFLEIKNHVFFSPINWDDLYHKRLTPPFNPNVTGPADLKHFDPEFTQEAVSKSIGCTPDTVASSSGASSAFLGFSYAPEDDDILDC
Experimental: as §1

TNK2 = target: T38, TNK2 (Homo sapiens, UniProt Q07912)
T38 construct: purchased Millipore, Inc. (KinaseProfiler service)
T38 sequence (Q07912 whole entry): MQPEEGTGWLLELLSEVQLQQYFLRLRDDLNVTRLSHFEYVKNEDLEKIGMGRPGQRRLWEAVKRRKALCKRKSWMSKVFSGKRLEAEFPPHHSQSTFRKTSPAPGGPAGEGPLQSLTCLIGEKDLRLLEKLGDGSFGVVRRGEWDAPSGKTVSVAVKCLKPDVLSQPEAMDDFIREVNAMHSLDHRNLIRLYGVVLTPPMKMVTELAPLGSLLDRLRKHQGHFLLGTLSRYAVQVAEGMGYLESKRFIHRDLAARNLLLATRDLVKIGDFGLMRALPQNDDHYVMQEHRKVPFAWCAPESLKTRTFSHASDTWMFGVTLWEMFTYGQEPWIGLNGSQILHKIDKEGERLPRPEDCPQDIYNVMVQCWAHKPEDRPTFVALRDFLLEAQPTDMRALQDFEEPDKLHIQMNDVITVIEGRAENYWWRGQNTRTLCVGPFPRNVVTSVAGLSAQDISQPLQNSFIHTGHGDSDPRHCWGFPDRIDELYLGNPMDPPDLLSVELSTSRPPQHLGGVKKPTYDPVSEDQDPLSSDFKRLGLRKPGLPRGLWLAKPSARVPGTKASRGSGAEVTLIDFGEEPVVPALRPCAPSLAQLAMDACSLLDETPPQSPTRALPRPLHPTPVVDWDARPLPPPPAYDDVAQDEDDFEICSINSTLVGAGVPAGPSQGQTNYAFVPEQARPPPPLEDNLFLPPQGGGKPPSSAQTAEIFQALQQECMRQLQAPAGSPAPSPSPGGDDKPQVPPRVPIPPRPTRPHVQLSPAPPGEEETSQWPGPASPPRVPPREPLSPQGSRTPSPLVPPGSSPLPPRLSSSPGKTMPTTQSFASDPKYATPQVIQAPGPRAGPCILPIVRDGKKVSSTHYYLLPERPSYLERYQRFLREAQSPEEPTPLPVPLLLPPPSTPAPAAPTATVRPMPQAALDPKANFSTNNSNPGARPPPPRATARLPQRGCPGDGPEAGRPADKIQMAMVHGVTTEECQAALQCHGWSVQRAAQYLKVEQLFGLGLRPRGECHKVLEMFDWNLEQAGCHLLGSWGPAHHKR
Experimental: as §1

Flt4 = target: T39, Flt4 (Homo sapiens, UniProt P35916)
T39 construct: purchased Millipore, Inc. (KinaseProfiler service)
Experimental: as §1

LOK = target: T40, LOK (Homo sapiens, UniProt O94804)
T40 construct: purchased Millipore, Inc. (KinaseProfiler service)
Experimental: as §1

## COCCCc1cc(Cl)c(Cl)cc1NC(=O)Nc1c(C)c(-c2cnn(C)c2)nn1-c1ccccc1 [Example 15, 1-(4,5-dichloro-2-(3-methoxypropyl)phenyl)-3-(1′,4-dimethyl-1-phenyl-1H,1′H-[3,4′-bipyrazol]-5-yl)urea]
ERK2
  Avg POC: 108 POC
TAO2
  Avg POC: 126 POC
LIMK1
  Avg POC: 93.5 POC
MLK1
  Avg POC: 110.5 POC
p70S6K
  Avg POC: 130.5 POC
Fyn
  Avg POC: 111.5 POC
TAO3
  Avg POC: 95 POC
EphB1
  Avg POC: 130 POC
Axl
  Avg POC: 107 POC
MKK6
  Avg POC: 124.5 POC
PKCbetaI
  Avg POC: 106 POC
SRPK1
  Avg POC: 112.5 POC
MSK2
  Avg POC: 147 POC
Rsk1
  Avg POC: 118 POC
EphA1
  Avg POC: 117 POC
PAK6
  Avg POC: 148 POC
SRC
  Avg POC: 90 POC
EphA7
  Avg POC: 103 POC
Fms
  Avg POC: 94 POC
CAMK2b
  Avg POC: 101.5 POC
Pim-2
  Avg POC: 142.5 POC
DCAMKL2
  Avg POC: 136 POC
GRK5
  Avg POC: 90 POC
BLK_m
  Avg POC: 118.5 POC
PDK1
  Avg POC: 116.5 POC
PAK2
  Avg POC: 101.5 POC
VRK2
  Avg POC: 94 POC
MARK2
  Avg POC: 101.5 POC
NEK3
  Avg POC: 120 POC
CAMK2d
  Avg POC: 135.5 POC
CDK3/cyclinE
  Avg POC: 101 POC
IGF-1R
  Avg POC: 85 POC
c-RAF
  Avg POC: 98.5 POC
FGFR2
  Avg POC: 108 POC
JNKlalpha1
  Avg POC: 107 POC
PAK5
  Avg POC: 132.5 POC
SGK2
  Avg POC: 117.5 POC
TNK2
  Avg POC: 124 POC
Flt4
  Avg POC: 91 POC
LOK
  Avg POC: 135 POC
